Several values for one entry are separate records, joined by “and”; a condition that tells them apart may be missing. Equal entries are not always repeated.
Test system: 485176-168-R4-J1-PDC spheroids with HUVEC/MSC, viability
Experiment: Anticancer human tumor 485176-168-R4-J1-PDC patient-derived pancreatic adenocarcinoma cell line growth inhibition [GQUAD]
Details: for viability, T/C: stronger effect = lower value
In short: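 Tumor cells were grown as complex spheroids with HUVEC endothelial cells and mesenchymal stem cells as stroma. G-quadruplex stabilizers were combined with targeted agents over half-log dilutions from near the clinical Cmax, or from 10 microM.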
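Also: spheroids exposed to compounds for seven days before readout.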
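For viability, T/C in this document: percent viability relative to DMSO vehicle control wells as 100%.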

Compound: CCCS(=O)(=O)Nc1ccc(F)c(C(=O)c2c[nH]c3ncc(-c4ccc(Cl)cc4)cc23)c1F + CN(C)c1ccc(Nc2c3ccc(NC(=O)CCN4CCCC4)cc3nc3cc(NC(=O)CCN4CCCC4)ccc23)cc1
- IC50 (curve of first compound, second compound 0.0316 µM): > 10 µM
- IC50 (curve of first compound, second compound 0.1 µM): > 10 µM
- IC50 (curve of first compound, second compound 0.316 µM): > 10 µM
- IC50 (curve of first compound, second compound 1 µM): > 10 µM
- IC50 (curve of first compound, second compound 3.16 µM): > 10 µM
- IC50 (curve of first compound, second compound 10 µM): 6.5 µM
- viability, T/C (second compound 0.0316 µM, first compound 0.0316 µM): 87.4%
- viability, T/C (second compound 0.0316 µM, first compound 0.1 µM): 81.9%
- viability, T/C (second compound 0.0316 µM, first compound 0.316 µM): 91.6%
- viability, T/C (second compound 0.0316 µM, first compound 1 µM): 86.4%
- viability, T/C (second compound 0.0316 µM, first compound 3.16 µM): 86.3%
- viability, T/C (second compound 0.0316 µM, first compound 10 µM): 70.1%
- viability, T/C (second compound 0.1 µM, first compound 0.0316 µM): 100%
- viability, T/C (second compound 0.1 µM, first compound 0.1 µM): 99%
- viability, T/C (second compound 0.1 µM, first compound 0.316 µM): 83.2%
- viability, T/C (second compound 0.1 µM, first compound 1 µM): 73.6%
- viability, T/C (second compound 0.1 µM, first compound 3.16 µM): 94.3%
- viability, T/C (second compound 0.1 µM, first compound 10 µM): 60%
- viability, T/C (second compound 0.316 µM, first compound 0.0316 µM): 97.5%
- viability, T/C (second compound 0.316 µM, first compound 0.1 µM): 95%
- viability, T/C (second compound 0.316 µM, first compound 0.316 µM): 91.1%
- viability, T/C (second compound 0.316 µM, first compound 1 µM): 77.2%
- viability, T/C (second compound 0.316 µM, first compound 3.16 µM): 90.8%
- viability, T/C (second compound 0.316 µM, first compound 10 µM): 63.7%
- viability, T/C (second compound 1 µM, first compound 0.0316 µM): 76.3%
- viability, T/C (second compound 1 µM, first compound 0.1 µM): 86.8%
- viability, T/C (second compound 1 µM, first compound 0.316 µM): 105%
- viability, T/C (second compound 1 µM, first compound 1 µM): 94.8%
- viability, T/C (second compound 1 µM, first compound 3.16 µM): 82.5%
- viability, T/C (second compound 1 µM, first compound 10 µM): 65.3%
- viability, T/C (second compound 3.16 µM, first compound 0.0316 µM): 91.8%
- viability, T/C (second compound 3.16 µM, first compound 0.1 µM): 87.6%
- viability, T/C (second compound 3.16 µM, first compound 0.316 µM): 78.8%
- viability, T/C (second compound 3.16 µM, first compound 1 µM): 81.3%
- viability, T/C (second compound 3.16 µM, first compound 3.16 µM): 81.2%
- viability, T/C (second compound 3.16 µM, first compound 10 µM): 51.3%
- viability, T/C (second compound 10 µM, first compound 0.0316 µM): 76.6%
- viability, T/C (second compound 10 µM, first compound 0.1 µM): 83.7%
- viability, T/C (second compound 10 µM, first compound 0.316 µM): 65.4%
- viability, T/C (second compound 10 µM, first compound 1 µM): 70.6%
- viability, T/C (second compound 10 µM, first compound 3.16 µM): 63.3%
- viability, T/C (second compound 10 µM, first compound 10 µM): 42.7%

Compound: Cn1ncnc1[C@H]1c2n[nH]c(=O)c3cc(F)cc(c23)N[C@@H]1c1ccc(F)cc1
- viability, T/C (compound 0.000999 µM): 99.2% (2×) and 86.5%
- viability, T/C (compound 0.00316 µM): 95.2% and 94% and 85.8%
- viability, T/C (compound 0.00999 µM): 96.4% and 108% and 91.5%
- viability, T/C (compound 0.0316 µM): 98.8% and 101% and 88.8%
- viability, T/C (compound 0.0999 µM): 91.2% and 91.7% and 89.7%
- viability, T/C (compound 0.316 µM): 75.9% and 98.5% and 85.9%
- IC50 (curve of compound): > 0.316 µM

From PubChem BioAssay AID2060509 (Molecular Pharmacology Branch, DTP, NCI, 2025)
